Data taken from patent US20080213236A1, “Natural Remedy-Dietary Supplement Combination Product” (priority 2005, published 2008).

Experiments:
[1] = test system: patients with rheumatoid arthritis; assay: Treatment of rheumatoid arthritis patients with the individual substances or extracts A-F; assay type: in vivo, human; conditions: for alleviation/reduction of joint pain / improvement in joint sensitivity: after two weeks; for Result of treatment, scale of 1-10: individual substance, scale from 1 (scarcely any alleviation of symptoms) to 10 (complete elimination of symptoms)
Method: All the abovementioned active ingredients or medicinal plant extracts A-F were tested singly in the treatment of rheumatoid arthritis. The following products and daily doses were used for this: A. Omega-3 fatty acids: 8 capsules of Ameu® 500 mg. One capsule of Ameu contains 500 mg of fish body oil (fatty oil from […] comprises 70 mg of eicosapentaenoic acid and 50 mg of docosahexaenoic acid (total 120 mg of omega-3 fatty acids). B. α-Tocopherol (vitamin E): 800 to 1000 I.U. once a day. C. Ascorbic acid (vitamin C): 3 g in three 1000 mg doses. D. Selenium: 300 μg of selenium as sodium selenite 5H2O ([…]® or […]®) once a day. E. Harpagophytum: 2×480 mg of dry extract once a day (extractant: ethanol 60% (V/V) (BIOCUR Arzneimittel GmbH). F. Boswellia serrata: 3×400 mg of dry extract once a day (H 15 Gufic tablets (Gufic Chem, India)). […] A positive rheumatoid factor was not obligatory. All the treated patients had elevated C-reactive protein and frequently raised ferritin as signs of inflammation. Bacterial and parasitic causes, and allergies (including yersinia, staphylococci, streptococci, mycoplasma, Whipple's disease, borreliosis and gluten allergies) were excluded. […] All the patients had discontinued their previous medication (morphine, ibuprofen, cortisol, etc.) at least one week before starting the treatment, or had received no medical therapy over a prolonged period because of toxic side effects of other medicaments. The results of treatment were classified on a scale of from 1 (scarcely any alleviation of symptoms) to 10 (complete elimination of symptoms).

[2] = single substance; cited from earlier work
rheumatoid arthritis = conditions: vitamin E alone, 1200 mg/day, without influencing the immune markers; cited from earlier work

SMILES | alleviation/reduction of joint pain [1] | improvement in joint sensitivity [1] | Result of treatment, scale of 1-10 [1] | effectiveness compared with total root extract [2] | pain (rheumatoid arthritis)
O=C1O[C@H]([C@@H](O)CO)C(O)=C1O [Ascorbic acid (vitamin C), Ascorbic acid] | 2-5% | 5-10% | 2 | – | –
C[C@]1(OC(=O)/C=C/c2ccccc2)C[C@@H](O)[C@]2(O)C=CO[C@@H](O[C@@H]3O[C@H](CO)[C@@H](O)[C@H](O)[C@H]3O)[C@@H]21 [Harpagoside] | – | – | – | far less effective than the total root extract | –
Cc1c(C)c2c(c(C)c1O)CC[C@@](C)(CCC[C@H](C)CCC[C@H](C)CCCC(C)C)O2 [α-Tocopherol (vitamin E), α-Tocopherol] | 5% | 10% | 3.0 | – | alleviation of pain
